Consider 26 molecules from patent publication US20080051429A1, “USE OF 4-AMINO-PIPERIDINES FOR TREATING SLEEP DISORDERS” (priority 2006, published 2008).

Where a name gives a salt, the structure may show the parent alone. Read-outs that look alike come from different tables or passages of the source.

This test has as its target T1, 5-HT2A receptor (Homo sapiens, UniProt P28223).
T1 construct: expressed in transfected cells; host or cells: NIH3T3 cells, pSI expression vector
Nature of the test: R-SAT functional receptor assay. The format is cell-based. As to conditions: for Emax: 120 h. As to the method: The functional receptor assay, Receptor Selection and Amplification Technology (R-SAT), was used (with minor modifications from that previously described U.S. Pat. No. 5,707,798) to screen compounds for efficacy at the 5-HT2A receptor. Briefly, NIH3T3 cells were grown in 96 well tissue culture plates to 70-80% confluence. Cells were transfected for 12-16 hours with plasmid DNAs using superfect (Qiagen Inc.) as per manufacture's protocols. R-SAT's were generally performed with 50 ng/well of receptor and 20 ng/well of Beta-galactosidase plasmid DNA. All receptor and G-protein constructs used were in the pSI mammalian expression vector (Promega Inc) as described in U.S. Pat. No. 5,707,798. The 5HT2A receptor gene was amplified by nested PCR from brain cDNA using the oligodeoxynucleotides based on the published sequence (see Saltzman et. al. Biochem. Biophys. Res. Comm. 181:1469-78 (1991)). Large-scale transfections, cells were transfected for 12-16 hours, then trypsinized and frozen in DMSO. Frozen cells were later thawed, plated at 10,000-40,000 cells per well of a 96 well plate that contained drug. With both methods, cells were then grown in a humidified atmosphere with 5% ambient CO2 for five days. Media was then removed from the plates and marker gene activity was measured by the addition of the beta-galactosidase substrate ONPG (in PBS with 5% NP-40). The resulting colorimetric reaction was measured in a spectrophotometric plate reader (Titertek Inc.)at […]. All data were analyzed using the computer program XLFit (IDBSm). Efficacy is the percent maximal repression compared to repression by a control compound (ritanserin in the case of 5HT2A). pIC50 is the negative of the log(IC50), where IC50 is the calculated concentration in Molar that produces 50% maximal repression.
Briefly, the 5-HT2A receptor, and the alpha subunit of the guanine nucleotide binding protein Gq were transiently transfected into NIH3T3 cells and assayed using the functional receptor assay, Receptor Selection and Amplification Technology (R-SAT) essentially as disclosed in U.S. Pat. No. 5,707,798. Each compound was screened at seven serially diluted concentrations in triplicate. Data were analyzed using least squares fit analysis with GraphPad Prism (San Diego, Calif.), and are reported normalized to percent response.
R-SAT assays (as described in Example 42) were carried out with cells transfected with receptors (listed below) to determine the receptor selectivity profile for compound 26HCH16D. 5HT2A inverse agonist data (IC50 nM; % efficacy) were derived from detailed dose response curves (7 points in triplicate).
The functional receptor assay, Receptor Selection and Amplification Technology (R-SAT), was used (with minor modifications from that previously described U.S. Pat. No. 5,707,798) to screen compounds for efficacy at the 5-HT2A receptor. The RSAT assay was conducted as described herein.
The functional receptor assay, Receptor Selection and Amplification Technology (R-SAT), was used (with minor modifications from that previously described U.S. Pat. No. 5,707,798, which is incorporated herein by reference in its entirety) to screen compounds for efficacy at the 5-HT2A receptor. The RSAT assay was conducted as described herein.

[1] abbreviates: read-out: Percent Efficacy, compared to ritanserin.
Where [2] appears, read: Table 3, read-out: pIC50 (converted).

T1 sequence (P28223 whole entry): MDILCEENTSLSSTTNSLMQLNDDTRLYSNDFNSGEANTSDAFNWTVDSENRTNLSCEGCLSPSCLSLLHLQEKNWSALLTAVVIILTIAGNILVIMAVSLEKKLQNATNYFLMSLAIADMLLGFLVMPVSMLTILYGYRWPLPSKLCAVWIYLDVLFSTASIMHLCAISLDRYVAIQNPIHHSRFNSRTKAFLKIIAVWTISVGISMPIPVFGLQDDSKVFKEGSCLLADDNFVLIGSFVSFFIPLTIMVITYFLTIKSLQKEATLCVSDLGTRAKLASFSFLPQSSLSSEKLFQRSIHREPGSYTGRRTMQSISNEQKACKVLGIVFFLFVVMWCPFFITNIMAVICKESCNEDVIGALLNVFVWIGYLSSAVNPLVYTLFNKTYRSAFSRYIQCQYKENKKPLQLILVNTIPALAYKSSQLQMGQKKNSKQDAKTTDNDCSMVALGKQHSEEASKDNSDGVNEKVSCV

Take `Cc1ccc(CN(C(=O)Cc2ccc(Cl)cc2)C2CCN(C)CC2)cc1` [Example 47AKU-8, 2-(4-Chlorophenyl)-N-(4-methylbenzyl)-N-(1-methylpiperidin-4-yl)-acetamide]: under setting [1], the Emax was found to be 113%. For the same molecule, under setting [2], the IC50 was 7.94 nM.

For the molecule `CCN1CCC(N(Cc2ccc(C)cc2)C(=O)Cc2ccc(Cl)cc2)CC1` [Example 47AKU-12, 2-(4-Chlorophenyl)-N-(4-methylbenzyl)-N-(1-ethylpiperidin-4-yl)acetamide], the Emax under setting [1] stood at 112%. Moreover, the IC50 under setting [2] is 7.94 nM.

On to `COc1ccc(CC(=O)N(Cc2ccc(C)cc2)C2CCN(C3CCC3)CC2)cc1` [Example 47AKU-20, 2-(4-Methoxyphenyl)-N-(4-methylbenzyl)-N-(1-cyclobutylpiperidin-4-yl)acetamide], for which the Emax under setting [1] worked out at 120%. Further, under setting [2], the IC50 was 10 nM.

Turning to `COc1ccc(CC(=O)N(Cc2ccc(C)cc2)C2CC3CCC(C2)N3C)cc1` (stereo not shown) [Example 47AKU-21, 2-(4-Methoxyphenyl)-N-(4-methylbenzyl)-N-(8-methyl-8-aza-bicyclo[3.2.1]oct-3-yl)-acetamide], the Emax (read-out: Percent Efficacy) amounted to 117%. The IC50 (pIC50, Table 3) is 12.6 nM.

In the case of `Cc1ccc(CN(C(=O)NCc2ccccc2)C2CCN(C)CC2)cc1` [Example 47AKU-22, N-(4-Methylbenzyl)-N-(1-methylpiperidin-4-yl)-N′-benzyl-carbamide], under setting [1], the Emax is 117%. Further, the IC50 under setting [2] was 12.6 nM.

On to `COc1ccc(CNC(=O)N(Cc2ccc(C)cc2)C2CCN(C)CC2)cc1` [Example 47AKU-44, N-(4-Methylbenzyl)-N-(1-methylpiperidin-4-yl)-N′-(4-methoxybenzyl)-carbamide], for which, under setting [1], the Emax amounted to 112%. Moreover, the IC50 under setting [2] was 3.16 nM.

With `COc1ccc(CC(=O)N(Cc2ccc(F)cc2)C2CCN(C)CC2)cc1` [Example 50ELH8, 2-(4-Methoxyphenyl)-N-(4-fluorobenzyl)-N-(1-methylpiperidin-4-yl)acetamide], the Emax under setting [1] amounted to 129%. Also, under setting [2], the IC50 was 15.8 nM.

For the molecule `COc1ccc(CC(=O)N(CCCc2ccccc2)C2CCN(C)CC2)cc1` [Example 50ELH65, 2-(4-Methoxyphenyl)-N-(3-phenyl-1-propyl)-N-(1-methylpiperidin-4-yl)acetamide], the Emax under setting [1] turned out to be 92%. Further, the IC50 under setting [2] was 12.6 nM.

As for `COc1ccc(CC(=O)N(CCc2ccc(C)cc2)C2CCN(C)CC2)cc1` [Example 50ELH68, 2-(4-Methoxyphenyl)-N-[2-(4-methylphenyl)ethyl)-N-(1-methylpiperidin-4-yl)acetamide], under setting [1], the Emax is 96%. Further, under setting [2], the IC50 is 3.98 nM.

As for `COc1ccc(CC(=O)N(Cc2ccc(C)cc2)C2CCN(CCCn3c(=O)[nH]c4ccccc43)CC2)cc1` [Example 50ELH89, 2-(4-Methoxyphenyl)-N-(4-methylbenzyl)-N-(1-(3-(1,3-dihydro-2H-benzimidazol-2-one-1-yl)propyl)piperidine-4-yl)acetamide], the Emax (read-out: Percent Efficacy) came out at 111%. In addition, for the setting “pIC50, Table 3”, the IC50 is 0.2 nM.

Turning to `COc1ccc(CC(=O)N(CCc2ccc(F)cc2)C2CCN(C)CC2)cc1` [Example 50ELH93A, 2-(4-Methoxyphenyl)-N-(2-4-(fluorophenyl)ethyl)-N-(1-methylpiperidin-4-yl)acetamide], the Emax under setting [1] worked out at 106%. Also, the IC50 under setting [2] is 2 nM.

For the molecule `COc1ccc(CC(=O)N(CCc2cccc(Cl)c2)C2CCN(C)CC2)cc1` [Example 50ELH93E, 2-(4-Methoxyphenyl)-N-[2-(3-chlorophenyl)ethyl]-N-(1-methylpiperidin-4-yl)acetamide], the Emax under setting [1] was 72%. Further, the IC50 under setting [2] is 7.94 nM.

`COc1ccc(CCN(C(=O)Cc2ccc(OC)cc2)C2CCN(C)CC2)cc1` [Example 50ELH95B, 2-(4-Methoxyphenyl)-N-[2-(4-methoxyphenyl)ethyl]-N-(1-methylpiperidin-4-yl)acetamide]: the Emax under setting [1] came out at 119%. For the same molecule, the IC50 under setting [2] was 10 nM.

Regarding `COc1ccc(CC(=O)N(Cc2ccc(C)cc2)C2CCN(C)CC2)cc1O` [Example 57MBT12B, N-((4-methylphenyl)methyl)-N-(1-methylpiperidin-4-yl)-2-(3-hydroxy-4-methoxyphenyl)acetamide], the Emax under setting [1] stood at 75%. In addition, the IC50 under setting [2] is 20 nM.

For `COc1ccc(CC(=O)N(Cc2ccc(C)c(O)c2)C2CCN(C)CC2)cc1` [Example 57MBT54B, N-((3-hydroxy-4-methylphenyl)methyl)-N-(1-methylpiperidin-4-yl)-2-(4-methoxyphenyl)acetamide], the Emax under setting [1] was 95%. The IC50 under setting [2] was 12.6 nM.

`Cc1ccc(CC(=O)N(Cc2ccc(C)cc2)C2CCN(C)CC2)cc1` [Example 57MBT62B, N-((4-methylphenyl)methyl)-N-(1-methylpiperidin-4-yl)-2-(4-methylphenyl)ace tamide hydrochloride]: where the note is “read-out: Percent Efficacy”, the Emax was 119%. Under setting [2], the IC50 is 12.6 nM.

Turning to `Cc1ccc(CN(C(=O)Cc2ccc(Br)cc2)C2CCN(C)CC2)cc1` [Example 57MBT70-1D, N-((4-methylphenyl)methyl)-N-(1-methylpiperidin-4-yl)-2-(4-bromophenyl)acetamide hydrochloride], the Emax (read-out: Percent Efficacy) turned out to be 120%. The IC50 under setting [2] was 12.6 nM.

For the molecule `Cc1ccc(CN(C(=O)Cc2ccc(I)cc2)C2CCN(C)CC2)cc1` [Example 57MBT70-2D, N-((4-methylphenyl)methyl)-N-(1-methylpiperidin-4-yl)-2-(4-iodophenyl)acetamide hydrochloride], the Emax (read-out: Percent Efficacy) came to 105%. The IC50 under setting [2] is 6.31 nM.

For `Cc1ccc(CN(C(=O)Cc2ccc(C(C)C)cc2)C2CCN(C)CC2)cc1` [Example 57MBT70-3D, N-((4-methylphenyl)methyl)-N-(1-methylpiperidin-4-yl)-2-(4-(2-propyl)phenylacetamide hydrochloride], the Emax under setting [1] is 87%. In addition, the IC50 (pIC50, Table 3) was 1.26 nM.

For `Cc1ccc(CN(C(=O)Cc2ccc(OC(F)(F)F)cc2)C2CCN(C)CC2)cc1` [Example 57MBT70-4D, N-((4-methylphenyl)methyl)-N-(1-methylpiperidin-4-yl)-2-(4-trifluoromethoxyphenyl)acetamide hydrochloride], the Emax (read-out: Percent Efficacy) came to 98%. The IC50 under setting [2] was 3.16 nM.

Take `COc1ccc(CC(=O)N(Cc2ccc(C)cc2)C2CCN(C)CC2)cc1C` [Example 57MBT70-8D, N-((4-methylphenyl)methyl)-N-(1-methylpiperidin-4-yl)-2-(4-methoxy-3-methylphenyl)acetamide hydrochloride]: where the note is “read-out: Percent Efficacy”, the Emax came to 119%. Besides, the IC50 under setting [2] was 20 nM.

For the molecule `COc1ccc(CNC(=O)N(Cc2ccc(C)cc2)C2CCN(C(C)(C)C)CC2)cc1` [Example 58AKU-3, N-(4-Methylbenzyl)-N-(1-t-butylpiperidin-4-yl)-N′-(4-methoxybenzyl)carbamide], under setting [1], the Emax stood at 111%. The IC50 under setting [2] is 7.94 nM.

For `CCOc1ccc(CC(=O)N(Cc2ccc(C)cc2)C2CCN(C)CC2)cc1` [Example 58AKU-4, 2-(4-Ethoxyphenyl)-N-(4-methylbenzyl)-N-(1-methylpiperidin-4-yl)acetamide], the Emax under setting [1] turned out to be 110%. Further, the IC50 under setting [2] is 0.251 nM.

As for `CCCCOc1ccc(CC(=O)N(Cc2ccc(C)cc2)C2CCN(C)CC2)cc1` [Example 58AKU-5, 2-(4-Butoxyphenyl)-N-(4-methylbenzyl)-N-(1-methylpiperidin-4-yl)acetamide], the Emax under setting [1] came out at 99%. Under setting [2], the IC50 was 0.316 nM.

For `Cc1ccc(CN(C(=O)Cc2ccc(OC(C)C)cc2)C2CCN(C)CC2)cc1` [Example 58AKU-6, 2-(4-i-Propoxyphenyl)-N-(4-methylbenzyl)-N-(1-methylpiperidin-4-yl)acetamide], the Emax under setting [1] amounted to 101%. Besides, the IC50 under setting [2] was 0.158 nM.

In the case of `COc1ccc(CC(=O)N(Cc2ccc(C)cc2)C2CCN(Cc3csc(C)n3)CC2)cc1` [Example 63ELH1A, 2-(4-Methoxyphenyl)-N-(4-methylbenzyl)-N-[1-(2-methylthiazol-4-ylmethyl)piperidin-4-yl]acetamide], where the note is “read-out: Percent Efficacy”, the Emax was determined as 104%. For the setting “pIC50, Table 3”, the IC50 was 5.01 nM.
